# From patent publication US20250213533A1 (GH RESEARCH IRELAND LIMITED, priority 2022, published 2025)
# Assays:
# 5-HT2A receptors = molecular target: T1, 5-HT2A receptors (Homo sapiens, UniProt P28223); assay: Radioligand binding ([3H]MDL-100,907) to 5-HT2A receptors in post-mortem human frontal cortex membranes
# T1 construct: 5-HT1A and 5-HT2A receptors in post-mortem human brain tissue from the hippocampus and frontal cortex, respectively; tissue Edinburgh Sudden Death Brain Bank; host or cells: post-mortem human frontal cortex membranes
# T1 sequence (P28223 whole entry): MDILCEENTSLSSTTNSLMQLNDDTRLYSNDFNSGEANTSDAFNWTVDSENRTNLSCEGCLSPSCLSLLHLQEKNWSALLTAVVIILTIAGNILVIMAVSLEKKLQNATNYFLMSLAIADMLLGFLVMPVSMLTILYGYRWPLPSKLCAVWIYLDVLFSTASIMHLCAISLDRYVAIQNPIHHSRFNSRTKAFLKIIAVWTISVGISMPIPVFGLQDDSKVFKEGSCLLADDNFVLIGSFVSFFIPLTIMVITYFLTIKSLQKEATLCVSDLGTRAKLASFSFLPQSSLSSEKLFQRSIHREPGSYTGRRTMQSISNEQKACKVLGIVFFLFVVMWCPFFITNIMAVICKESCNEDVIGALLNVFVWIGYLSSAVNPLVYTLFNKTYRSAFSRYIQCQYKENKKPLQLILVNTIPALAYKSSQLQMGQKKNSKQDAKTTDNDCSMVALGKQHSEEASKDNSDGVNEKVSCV
# [1] = system: Escherichia coli (WP2 uvrA pKM101); assay: Bacterial mutation test, tryptophan-requiring strain; assay type: cell-based; details: up to 5000 μg/plate, absence and presence of rat liver S-9
# Description: These conditions included treatments at concentrations up to 5000 μg/plate (the maximum recommended concentration according to current regulatory guidelines), in the absence and in the presence of a rat liver metabolic activation system (S-9).
smiles,measurement,setting,value
COc1ccc2[nH]cc(CCN(C)C)c2c1 [5-MeO-DMT],affinity for 5-HT2A receptors (in words),5-HT2A receptors,comparatively weak affinity
same,induction of mutation,[1],did not induce mutation
